Test results as given in article PMC6291527, “A Nanostructured Lipid System to Improve the Oral Bioavailability of Ruthenium(II) Complexes for the Treatment of Infections Caused by Mycobacterium tuberculosis” (Frontiers in Microbiology, 2018).
≈ marks a conversion by molar mass, not a printed value.

Experiments:
Experiment in all cases: microbe, parasite or virus in culture
Assay type in all cases: cell-based, Mycobacterium tuberculosis
[1] = system: M. tuberculosis clinical isolate CF169; details: for MIC90: Mycobacterium tuberculosis, read-out: MIC90 of the Compounds, isolate CF169; for MIC90 of the Compounds, isolate CF169: REMA, CF169 resistant to INH and RIF, NL = not loaded (DMSO), L = loaded into NLS
[2] = system: M. tuberculosis clinical isolate CF158; details: for MIC90: Mycobacterium tuberculosis, read-out: MIC90 of the Compounds, isolate CF158; for MIC90 of the Compounds, isolate CF158: REMA, CF158 resistant to INH and RIF, NL = not loaded (DMSO), L = loaded into NLS
[3] = system: M. tuberculosis clinical isolate CF100; details: for MIC90: Mycobacterium tuberculosis, read-out: MIC90 of the Compounds, isolate CF100; for MIC90 of the Compounds, isolate CF100: REMA, CF100 resistant to INH, NL = not loaded (DMSO), L = loaded into NLS

Row | Molecule | MIC90 [1] [µg/mL] | MIC90 [2] [µg/mL] | MIC90 [3] [µg/mL] | MIC90 of the Compounds, isolate CF169 [1] | MIC90 of the Compounds, isolate CF158 [2] | MIC90 of the Compounds, isolate CF100 [3]
1 | CC1COc2c(N3CCN(C)CC3)c(F)cc3c(=O)c(C(=O)O)cn1c23 (stereo not shown) [OFL, ofloxacin] | 11.5 (≈ 31.8 µM) | 0.7 (≈ 1.94 µM) | 0.9 (≈ 2.49 µM) | – | – | –
2 | [Ru(pic)(dppb)(phen)]PF6 [SCAR4] | – | – | – | 3.0 µg/mL | 2.7 µg/mL | 5.4 µg/mL
3 | [Ru(pic)(dppe)(phen)]PF6 [SCAR7] | – | – | – | 4.4 µg/mL | 3.0 µg/mL | 7.3^∗ μg mL^-1
4 | NCC[C@H](O)C(=O)N[C@@H]1C[C@H](N)[C@@H](O[C@H]2O[C@H](CN)[C@@H](O)[C@H](O)[C@H]2O)[C@H](O)[C@H]1O[C@H]1O[C@H](CO)[C@@H](O)[C@H](N)[C@H]1O [AMI, amikacin] | 0.6 (≈ 1.02 µM) | 0.6 (≈ 1.02 µM) | 0.7 (≈ 1.2 µM) | – | – | –
5 | COc1c(N2CCNC(C)C2)c(F)cc2c(=O)c(C(=O)O)cn(C3CC3)c12 (stereo not shown) [GAT, gatifloxacin] | 1.2 (≈ 3.2 µM) | 0.2 (≈ 0.533 µM) | 0.5 (≈ 1.33 µM) | – | – | –
6 | NNC(=O)c1ccncc1 [INH, isoniazid] | > 50 | > 50 | > 50 | – | >50 µg/mL | >50 µg/mL
7 | Cc1ccnc(-c2cc(C)ccn2)c1.F[P-](F)(F)(F)(F)F.O=C([O-])c1ccccn1.[Ru+2].c1ccc(P(CCCCP(c2ccccc2)c2ccccc2)c2ccccc2)cc1 [SCAR2, [Ru(pic)(dppb)(Me-bipy)]PF6] | – | – | – | 2.6^∗ μg mL^-1 | 1.6^∗ μg mL^-1 | 5.7 µg/mL
8 | F[P-](F)(F)(F)(F)F.O=C([O-])c1ccccn1.[Ru+2].c1ccc(P(CCP(c2ccccc2)c2ccccc2)c2ccccc2)cc1.c1ccc(P(CCP(c2ccccc2)c2ccccc2)c2ccccc2)cc1 [SCAR5, cis-[Ru(pic)(dppe)2]PF6] | – | – | – | 2.9^∗ μg mL^-1 | 2.9^∗ μg mL^-1 | 5.1 µg/mL
9 | [Ru(pic)(dppb)(bipy)]PF6 [SCAR1] | – | – | – | 2.9^∗ μg mL^-1 | 2.6^∗ μg mL^-1 | 10.9 µg/mL
10 | NC[C@@H]1O[C@@H](O[C@H]2[C@H](O)[C@@H](O[C@H]3O[C@H](CO)[C@@H](O)[C@H](N)[C@H]3O)[C@H](N)C[C@@H]2N)[C@@H](O)[C@H](O)[C@H]1O [KAN] | – | – | – | 1.5 µg/mL | 2.8 µg/mL | 7.8 µg/mL
11 | CO[C@H]1/C=C/O[C@@]2(C)Oc3c(C)c(O)c4c(O)c(c(/C=N/N5CCN(C)CC5)c(O)c4c3C2=O)NC(=O)/C(C)=C\C=C\[C@H](C)[C@H](O)[C@@H](C)[C@@H](O)[C@@H](C)[C@H](OC(C)=O)[C@@H]1C [RIF, rifampicin] | > 50 | > 50 | < 0.195 | >50 µg/mL | >50 µg/mL | –
